Measured values published in PubChem BioAssay (NCI).
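1) Cells in 96-well plates. 2) Compound, 48 h, 5 concentrations. 3) Linear interpolation between surrounding doses. 4) Unreached endpoint = highest concentration. At the TGI there is no net growth.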

Columns and labels:
Assay in all cases: NCI-60 cell line screen, 48 h
CCRF-CEM leukemia = test system: CCRF-CEM leukemia
HCT-15 colon = test system: HCT-15 colon
UACC-257 melanoma = test system: UACC-257 melanoma
NCI-H460 lung = test system: NCI-H460 lung
MCF7 breast = test system: MCF7 breast
NCI/ADR-RES ovarian = test system: NCI/ADR-RES ovarian
HL-60(TB) leukemia = test system: HL-60(TB) leukemia
MALME-3M melanoma = test system: MALME-3M melanoma
RPMI-8226 leukemia = test system: RPMI-8226 leukemia
SF-539 CNS = test system: SF-539 CNS
SR leukemia = test system: SR leukemia
SF-295 CNS = test system: SF-295 CNS
SK-MEL-28 melanoma = test system: SK-MEL-28 melanoma
HCC-2998 colon = test system: HCC-2998 colon
HOP-92 NSCLC = test system: HOP-92 NSCLC
SK-MEL-5 melanoma = test system: SK-MEL-5 melanoma
NCI-H522 lung = test system: NCI-H522 lung
HS 578T breast = test system: HS 578T breast
COLO 205 colon = test system: COLO 205 colon
MDA-MB-231 breast = test system: MDA-MB-231 breast
SNB-75 CNS = test system: SNB-75 CNS
TK-10 renal = test system: TK-10 renal
MOLT-4 leukemia = test system: MOLT-4 leukemia
OVCAR-3 ovarian = test system: OVCAR-3 ovarian
NCI-H23 lung = test system: NCI-H23 lung
NCI-H226 lung = test system: NCI-H226 lung
786-0 renal = test system: 786-0 renal
SN12C renal = test system: SN12C renal
OVCAR-8 ovarian = test system: OVCAR-8 ovarian
HOP-62 NSCLC = test system: HOP-62 NSCLC
RXF 393 renal = test system: RXF 393 renal
PC-3 prostate = test system: PC-3 prostate
DU-145 prostate = test system: DU-145 prostate
OVCAR-4 ovarian = test system: OVCAR-4 ovarian
K-562 leukemia = test system: K-562 leukemia
CAKI-1 renal = test system: CAKI-1 renal
HCT-116 colon = test system: HCT-116 colon
U251 CNS = test system: U251 CNS
MDA-MB-435 = test system: MDA-MB-435
ACHN renal = test system: ACHN renal
HT29 colon = test system: HT29 colon
EKVX NSCLC = test system: EKVX NSCLC
A549 NSCLC = test system: A549 NSCLC
A498 renal = test system: A498 renal
SW-620 colon = test system: SW-620 colon
SK-MEL-2 melanoma = test system: SK-MEL-2 melanoma
UO-31 renal = test system: UO-31 renal
LOX IMVI melanoma = test system: LOX IMVI melanoma
KM12 colon = test system: KM12 colon
IGROV1 ovarian = test system: IGROV1 ovarian
SF-268 CNS = test system: SF-268 CNS
OVCAR-5 ovarian = test system: OVCAR-5 ovarian
SNB-19 CNS = test system: SNB-19 CNS
T-47D breast = test system: T-47D breast
M14 melanoma = test system: M14 melanoma
UACC-62 melanoma = test system: UACC-62 melanoma
BT-549 breast = test system: BT-549 breast
SK-OV-3 ovarian = test system: SK-OV-3 ovarian

With `O=C1C2=Nc3ccccc3C(O)(C(=O)O)N2c2ccccc21` (centres undefined) the TGI (CCRF-CEM leukemia) was 94.9 µM, the TGI (HCT-15 colon) was > 100 µM and the TGI (UACC-257 melanoma) was 24.2 µM. For the same compound, the TGI (NCI-H460 lung) was 39.3 µM, the TGI (MCF7 breast) was 46.8 µM and the TGI (NCI/ADR-RES ovarian) was > 100 µM. The TGI (HL-60(TB) leukemia) was 77 µM, the TGI (MALME-3M melanoma) was 28.2 µM and the TGI (RPMI-8226 leukemia) was > 100 µM. For the same compound, the TGI (SF-539 CNS) was 48.4 µM, the TGI (SR leukemia) was > 100 µM and the TGI (SF-295 CNS) was 39.9 µM. For the same compound, the TGI (SK-MEL-28 melanoma) was > 100 µM, the TGI (HCC-2998 colon) was > 100 µM and the TGI (HOP-92 NSCLC) was > 100 µM. For the same compound, the TGI (SK-MEL-5 melanoma) was 27.5 µM, the TGI (NCI-H522 lung) was 50.2 µM and the TGI (HS 578T breast) was > 100 µM. It also gave a TGI (COLO 205 colon) of 36.6 µM, a TGI (MDA-MB-231 breast) of 35.4 µM and a TGI (SNB-75 CNS) of 74.2 µM. The TGI (TK-10 renal) was > 100 µM, the TGI (MOLT-4 leukemia) was > 100 µM and the TGI (OVCAR-3 ovarian) was 58.5 µM. For the same compound, the TGI (NCI-H23 lung) was 54.3 µM, the TGI (NCI-H226 lung) was > 100 µM and the TGI (786-0 renal) was > 100 µM. The TGI (SN12C renal) was > 100 µM, the TGI (OVCAR-8 ovarian) was > 100 µM and the TGI (HOP-62 NSCLC) was > 100 µM. The TGI (RXF 393 renal) was > 100 µM, the TGI (PC-3 prostate) was 20 µM and the TGI (DU-145 prostate) was 29.8 µM. For the same compound, the TGI (OVCAR-4 ovarian) was 32.4 µM, the TGI (K-562 leukemia) was > 100 µM and the TGI (CAKI-1 renal) was > 100 µM. The TGI (HCT-116 colon) was 59.7 µM, the TGI (U251 CNS) was > 100 µM and the TGI (MDA-MB-435) was 5.5 µM. For the same compound, the TGI (ACHN renal) was > 100 µM, the TGI (HT29 colon) was 49.2 µM and the TGI (EKVX NSCLC) was > 100 µM. The TGI (A549 NSCLC) was 24.6 µM, the TGI (A498 renal) was 80.9 µM and the TGI (SW-620 colon) was > 100 µM. For the same compound, the TGI (SK-MEL-2 melanoma) was 43.4 µM, the TGI (UO-31 renal) was > 100 µM and the TGI (LOX IMVI melanoma) was 59.2 µM. For the same compound, the TGI (KM12 colon) was > 100 µM, the TGI (IGROV1 ovarian) was > 100 µM and the TGI (SF-268 CNS) was > 100 µM. For the same compound, the TGI (OVCAR-5 ovarian) was 49.4 µM.
For `CC(C)C(N)C(=O)NC(CCC(=O)NCCCCC(N)C(=O)NCCCNc1ccc([N+](=O)[O-])c2[nH]c3ccccc3c(=O)c12)C(N)=O` (centres undefined), the TGI (CCRF-CEM leukemia) was > 100 µM, the TGI (HCT-15 colon) was > 100 µM and the TGI (UACC-257 melanoma) was > 100 µM. For the same compound, the TGI (NCI-H460 lung) was > 100 µM, the TGI (NCI/ADR-RES ovarian) was > 100 µM and the TGI (SNB-19 CNS) was > 100 µM. For the same compound, the TGI (RPMI-8226 leukemia) was > 100 µM, the TGI (SF-295 CNS) was > 100 µM and the TGI (SK-MEL-28 melanoma) was > 100 µM. The TGI (HCC-2998 colon) was > 100 µM, the TGI (T-47D breast) was > 100 µM and the TGI (HOP-92 NSCLC) was > 100 µM. For the same compound, the TGI (SK-MEL-5 melanoma) was > 100 µM, the TGI (COLO 205 colon) was > 100 µM and the TGI (MDA-MB-231 breast) was > 100 µM. For the same compound, the TGI (SNB-75 CNS) was > 100 µM, the TGI (TK-10 renal) was > 100 µM and the TGI (OVCAR-3 ovarian) was > 100 µM. The TGI (NCI-H23 lung) was > 100 µM, the TGI (NCI-H226 lung) was > 100 µM and the TGI (786-0 renal) was > 100 µM. The TGI (M14 melanoma) was > 100 µM, the TGI (OVCAR-8 ovarian) was > 100 µM and the TGI (HOP-62 NSCLC) was > 100 µM. For the same compound, the TGI (RXF 393 renal) was 46.5 µM, the TGI (UACC-62 melanoma) was > 100 µM and the TGI (PC-3 prostate) was > 100 µM. For the same compound, the TGI (DU-145 prostate) was > 100 µM, the TGI (OVCAR-4 ovarian) was > 100 µM and the TGI (K-562 leukemia) was > 100 µM. The TGI (CAKI-1 renal) was > 100 µM, the TGI (HCT-116 colon) was > 100 µM and the TGI (U251 CNS) was > 100 µM. For the same compound, the TGI (MDA-MB-435) was > 100 µM, the TGI (ACHN renal) was > 100 µM and the TGI (EKVX NSCLC) was > 100 µM. The TGI (A549 NSCLC) was > 100 µM, the TGI (BT-549 breast) was 29.4 µM and the TGI (A498 renal) was > 100 µM. The TGI (SW-620 colon) was > 100 µM, the TGI (SK-MEL-2 melanoma) was > 100 µM and the TGI (UO-31 renal) was > 100 µM. The TGI (SK-OV-3 ovarian) was > 100 µM, the TGI (LOX IMVI melanoma) was 80.2 µM and the TGI (KM12 colon) was > 100 µM. The TGI (SF-268 CNS) was > 100 µM and the TGI (OVCAR-5 ovarian) was > 100 µM.
